Measured values from publication PMC10799935, “Discovery of a peripheral 5HT2A antagonist as a clinical candidate for metabolic dysfunction-associated steatohepatitis” (Nature Communications, 2024).
“And” between values parts separate entries of the source, which are not always exact repeats. Identical values can stand only once.

Experiments:
HFD-fed C57BL/6J mice [1] = assay: DIO mice: tissue weight; assay type: in vivo, mouse; details: iWAT; for Predicted (LS) mean 2 (11c group), Tissue Weight: test details, in g (unit assumed)
From the text: (§1) For in vivo efficacy in DIO models and CDAHFD models, the experimental protocol for this study was approved by the Institutional Animal Care and Use Committee (IACUC) at the Korea Advanced Institute of Science and Technology (No. KA2023-027-v2) or Kyungpook National University (No. KNU-20200134). All relevant ethical guidelines were followed. C57BL/6 J male mice (11 weeks old) were purchased from the Charles River Japan and were housed in a specific pathogen-free barrier facility under a regular light-dark cycle (12-hour light/12-hour dark) at 24°C with 40–60% humidity. Food (standard chow diet, Envigo, 2018S) and water were provided ad libitum. […] Mice were euthanized by the method of cervical dislocation. The measurement of lean and fat mass in live mice was performed by a body composition analyzer (LF50 BCA-analyzer, Bruker). After 6 h of fasting, mice were sacrificed, and tissue samples were obtained.

in vitro = details: Chinese hamster
HFD-fed C57BL/6J mice [2] = assay: DIO mice (HFD, 8 weeks): body weight; assay type: in vivo, mouse; details: for Body weight: Predicted (LS) mean diff., Vehicle vs. 11c: Dunnett's test; for 16hr fasting B.W.: DIO C57BL/6J mice, PO; for Body weight: DIO mice, individual mice and group Mean, in g (unit assumed)
From the text: as §1

Cc1nc2n(c(=O)c1CCN1CCC(=C3c4ccc(Cl)cc4CCc4cccnc43)CC1)CCCC2O (stereo not shown) [Compound 11c]
Predicted (LS) mean 2 (11c group), Tissue Weight (HFD-fed C57BL/6J mice [1]; 5mpk): 1.008
Predicted (LS) mean diff. (Vehicle vs. 11c), Tissue Weight (HFD-fed C57BL/6J mice [1]; 10mpk, Dunnett's multiple comparisons test): 0.5213
Significant? (Vehicle vs. 11c), Tissue Weight (HFD-fed C57BL/6J mice [1]; 10mpk, Dunnett's test, alpha 0.05): Yes
Predicted (LS) mean 2 (11c group), Tissue Weight (HFD-fed C57BL/6J mice [1]; 10mpk): 0.567
IC50 (in vitro): > 100 µM
Body weight: Predicted (LS) mean diff., Vehicle vs. 11c (HFD-fed C57BL/6J mice [2]; 5mpk, week 12): 0.7 g
Body weight: Predicted (LS) mean diff., Vehicle vs. 11c (HFD-fed C57BL/6J mice [2]; 5mpk, week 13): 0.6 g
Body weight: Predicted (LS) mean diff., Vehicle vs. 11c (HFD-fed C57BL/6J mice [2]; 5mpk, week 14): 0.7 g
Body weight: Predicted (LS) mean diff., Vehicle vs. 11c (HFD-fed C57BL/6J mice [2]; 5mpk, week 15): 0.6 g
Body weight: Predicted (LS) mean diff., Vehicle vs. 11c (HFD-fed C57BL/6J mice [2]; 5mpk, week 16): 1.1 g
Body weight: Predicted (LS) mean diff., Vehicle vs. 11c (HFD-fed C57BL/6J mice [2]; 5mpk, week 17): 1.7 g
Body weight: Predicted (LS) mean diff., Vehicle vs. 11c (HFD-fed C57BL/6J mice [2]; 5mpk, week 18): 2.1 g
Body weight: Predicted (LS) mean diff., Vehicle vs. 11c (HFD-fed C57BL/6J mice [2]; 5mpk, week 19): 2.7 g
Body weight: Predicted (LS) mean diff., Vehicle vs. 11c (HFD-fed C57BL/6J mice [2]; 5mpk, week 20): 2.7 g
Body weight: Predicted (LS) mean diff., Vehicle vs. 11c (HFD-fed C57BL/6J mice [2]; 5mpk, week 21): 3.4 g
body weight gain upon HFD (HFD-fed C57BL/6J mice [2]; 10 mpk daily oral gavage, 8 weeks, vs vehicle-treated mice): attenuated
Body weight: Predicted (LS) mean diff., Vehicle vs. 11c (HFD-fed C57BL/6J mice [2]; 10mpk, week 12): 0.1 g
Body weight: Predicted (LS) mean diff., Vehicle vs. 11c (HFD-fed C57BL/6J mice [2]; 10mpk, week 13): 0.9 g
Body weight: Predicted (LS) mean diff., Vehicle vs. 11c (HFD-fed C57BL/6J mice [2]; 10mpk, week 14): 1.5 g
Body weight: Predicted (LS) mean diff., Vehicle vs. 11c (HFD-fed C57BL/6J mice [2]; 10mpk, week 15): 1.8 g
Body weight: Predicted (LS) mean diff., Vehicle vs. 11c (HFD-fed C57BL/6J mice [2]; 10mpk, week 16): 3.7 g
Body weight: Predicted (LS) mean diff., Vehicle vs. 11c (HFD-fed C57BL/6J mice [2]; 10mpk, week 17): 6.3 g
Body weight: Predicted (LS) mean diff., Vehicle vs. 11c (HFD-fed C57BL/6J mice [2]; 10mpk, week 18): 7.2 g
Body weight: Predicted (LS) mean diff., Vehicle vs. 11c (HFD-fed C57BL/6J mice [2]; 10mpk, week 19): 7.7 g
Body weight: Predicted (LS) mean diff., Vehicle vs. 11c (HFD-fed C57BL/6J mice [2]; 10mpk, week 20): 7.2 g
Body weight: Predicted (LS) mean diff., Vehicle vs. 11c (HFD-fed C57BL/6J mice [2]; 10mpk, week 21): 7.2 g
16hr fasting B.W. (HFD-fed C57BL/6J mice [2]; 5mpk, group mean): 41.2
16hr fasting B.W. (HFD-fed C57BL/6J mice [2]; 5mpk, individual animals, 5 mg/kg): 43.7 and 38.6 and 37.5 and 35.1 and 41.4 and 48.5 and 43.4
16hr fasting B.W. (HFD-fed C57BL/6J mice [2]; 10mpk, group mean): 36.5
16hr fasting B.W. (HFD-fed C57BL/6J mice [2]; 10mpk, individual animals, 10 mg/kg): 33.5 and 41.1 and 34.8 and 42.8 and 35.7 and 31.2
Body weight (HFD-fed C57BL/6J mice [2]; 5mpk PO, week 12 (2021.04.26), 5 mg/kg): 25.4 and 23.4 and 24.4 and 26.8 and 26.0 and 30.2 and 25.6
Body weight (HFD-fed C57BL/6J mice [2]; 5mpk PO, week 13, 5 mg/kg): 29.8 and 27.5 and 28.5 and 28.2 and 28.9 and 32.0 and 29.6
Body weight (HFD-fed C57BL/6J mice [2]; 5mpk PO, week 13, 5 mg/kg, mean): 29.2
Body weight (HFD-fed C57BL/6J mice [2]; 5mpk PO, week 14, 5 mg/kg): 32.9 and 29.6 and 29.0 and 31.0 and 34.0 and 31.6
Body weight (HFD-fed C57BL/6J mice [2]; 5mpk PO, week 15, 5 mg/kg): 35.3 and 30.6 and 29.8 and 29.5 and 33.2 and 37.1 and 34.1
Body weight (HFD-fed C57BL/6J mice [2]; 5mpk PO, week 15, 5 mg/kg, mean): 32.8
Body weight (HFD-fed C57BL/6J mice [2]; 5mpk PO, week 16, 5 mg/kg): 37.5 and 32.7 and 32.5 and 31.1 and 35.5 and 40.4 and 36.8
Body weight (HFD-fed C57BL/6J mice [2]; 5mpk PO, week 16, 5 mg/kg, mean): 35.2
Body weight (HFD-fed C57BL/6J mice [2]; 5mpk PO, week 17, 5 mg/kg): 39.7 and 34.6 and 33.9 and 32.4 and 37.7 and 43.6 and 39.6
Body weight (HFD-fed C57BL/6J mice [2]; 5mpk PO, week 17, 5 mg/kg, mean): 37.4
Body weight (HFD-fed C57BL/6J mice [2]; 5mpk PO, week 18, 5 mg/kg): 41.7 and 36.9 and 35.3 and 33.1 and 40.0 and 45.0 and 41.5
Body weight (HFD-fed C57BL/6J mice [2]; 5mpk PO, week 18, 5 mg/kg, mean): 39.1
Body weight (HFD-fed C57BL/6J mice [2]; 5mpk PO, week 19, 5 mg/kg): 43.5 and 38.6 and 37.3 and 34.8 and 41.8 and 47.5 and 43.3
Body weight (HFD-fed C57BL/6J mice [2]; 5mpk PO, week 19, 5 mg/kg, mean): 41.0
Body weight (HFD-fed C57BL/6J mice [2]; 5mpk PO, week 20, 5 mg/kg): 45.7 and 40.4 and 39.5 and 37.0 and 43.5 and 51.0 and 45.4
Body weight (HFD-fed C57BL/6J mice [2]; 5mpk PO, week 20, 5 mg/kg, mean): 43.2
Body weight (HFD-fed C57BL/6J mice [2]; 5mpk PO, week 21, 5 mg/kg): 44.4 and 40.2 and 39.8 and 36.4 and 42.4 and 50.0 and 45.2
Body weight (HFD-fed C57BL/6J mice [2]; 5mpk PO, week 21, 5 mg/kg, mean): 42.6
Body weight (HFD-fed C57BL/6J mice [2]; 10mpk PO, week 12 (2021.04.26), 10 mg/kg): 26.6 and 29.1
Body weight (HFD-fed C57BL/6J mice [2]; 10mpk PO, week 13, 10 mg/kg): 29.9 and 31.2
Body weight (HFD-fed C57BL/6J mice [2]; 10mpk PO, week 14, 10 mg/kg): 31.8 and 32.6
Body weight (HFD-fed C57BL/6J mice [2]; 10mpk PO, week 15, 10 mg/kg): 34.0 and 33.3 and 29.5
Body weight (HFD-fed C57BL/6J mice [2]; 10mpk PO, week 16, 10 mg/kg): 36.3 and 34.1 and 30.0
Body weight (HFD-fed C57BL/6J mice [2]; 10mpk PO, week 17, 10 mg/kg): 36.6 and 35.0 and 29.8
Body weight (HFD-fed C57BL/6J mice [2]; 10mpk PO, week 18, 10 mg/kg): 35.5 and 37.1
Body weight (HFD-fed C57BL/6J mice [2]; 10mpk PO, week 19, 10 mg/kg): 34.6 and 39.9
Body weight (HFD-fed C57BL/6J mice [2]; 10mpk PO, week 20, 10 mg/kg): 35.7 and 43.1
Body weight (HFD-fed C57BL/6J mice [2]; 10mpk PO, week 21, 10 mg/kg): 36.0 and 43.2
